Experimental data taken from patent US6893830B1, “Method of screening oxysterol activation of LXRα” (The Board of Regents of the University of Texas System, priority 1996, dated 2005).

Tests used:
LXRα protein = target: T1, LXRα protein (Homo sapiens, UniProt Q13133); test: Limited protease protection assay (chymotrypsin) of [35S]-labelled Flag-LXRα; assay type: binding; conditions: increasing concentrations of chymotrypsin, SDS-PAGE and autoradiography
T1 construct: made in house; host or cells: in vitro synthesis (cell-free translation)
T1 sequence (Q13133 1-447): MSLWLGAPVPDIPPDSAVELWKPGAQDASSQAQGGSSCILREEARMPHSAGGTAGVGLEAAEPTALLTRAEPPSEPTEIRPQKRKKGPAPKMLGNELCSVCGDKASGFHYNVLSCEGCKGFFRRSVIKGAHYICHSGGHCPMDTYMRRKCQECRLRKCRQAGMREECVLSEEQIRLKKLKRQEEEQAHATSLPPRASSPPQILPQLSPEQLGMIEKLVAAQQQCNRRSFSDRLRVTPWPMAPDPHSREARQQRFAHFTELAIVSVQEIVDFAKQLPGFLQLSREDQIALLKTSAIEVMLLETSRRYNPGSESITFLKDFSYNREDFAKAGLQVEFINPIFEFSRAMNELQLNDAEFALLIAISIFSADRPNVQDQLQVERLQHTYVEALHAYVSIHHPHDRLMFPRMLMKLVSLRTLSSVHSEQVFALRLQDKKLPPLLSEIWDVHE
Protocol: FIG. 4, Protease protection of LXRα with 22(R)-hydroxycholesterol. [^35S]-labelled LXRα protein was incubated with (A) ethanol (ETOH) control or (B) 22(R)-hydroxycholesterol, subjected to protease digestion with increasing amounts of chymotrypsin, and analyzed by SDS-PAGE and autoradiography.
In vitro synthesized [^35S]-labelled Flag-LXRα protein was subjected to protease digestion with α-chymotrysin. For these studies, LXRα with a Flag epitope fused to the amino terminus was used.
The unavailability of radiolabelled LXRα activators prevents direct ligand binding analysis. To address the possibility that 22(R)-hydroxycholesterol interacts with LXRα, a limited protease protection assay was performed (FIG. 4). In this experiment, several proteolytic fragments were generated when LXRα protein was incubated with increasing concentrations of the protease, chymotrypsin. […] The presence of a specific ligand-protected ˜30 kDa fragment has also been observed during similar analyses with other nuclear receptors. Thus, these protease protection studies support the finding that 22(R)-hydroxycholesterol interacts with LXRα.

[1] = system: other known nuclear receptors (RXRα, RARα, TRβ, VDR, PPARα, FXR, ER, GR, usp/EcR); test: Receptor-specific transactivation: cotransfection of other nuclear receptors with their cognate response element reporters in CV-1 cells; assay type: cell-based, human; conditions: 6 μM 22(R)-hydroxycholesterol
Protocol: (§1) TK-DR-4-LUC; human vitamin D receptor (VDR)^24, TK-DR^3-LUC; human peroxisome proliferator-activated receptor-α (PPARα)^25, TK-PPREx3-LUC; human farnesol activated receptor (FXR)^11, ΔMTV-EcREx5-LUC; human estrogen receptor (ER)^26, ΔMTV-ERE-LUC; human glucocorticoid receptor (GR)^27, MTV-LUC; Drosophila ecdysone receptor (usp/EcR)^15, ΔMTV-EcREx5-LUC. Cells were treated with ETOH or 6 μM 22(R)-hydroxycholesterol. […] FIG. 3(A)-3(D) Activation of LXRα by 22(R)-hydroxycholesterol in Drosophila (SL-2) cells. […] CV-1 cells were cotransfected with TK-LXREx3-LUC reporter plasmid and expression plasmids containing the indicated receptor combinations, and then treated with the indicated ligands. […] CV-1 cells cotransfected with the LXRα expression plasmid and TK-LXREx3-LUC reporter were treated with 9-cis RA, 22(R)-hydroxycholesterol, or both, at the indicated concentrations.
(§2) In FIG. 3B. Drosophila SL-2 cells were transfected and assayed as previously described^5 in 6-well plates with […] A5C-hLXRα or A5C-hLXRα, 0.5 mg ADH-LXREx2-LUC, 0.2 mg A5C-βGAL and […] PGEM4 carrier DNA per well.

[2] = target: T2, LXR-TR chimera (LXRα N-terminus and DNA binding domain fused to ligand binding domain of TRβ) (Homo sapiens, UniProt P10828+Q13133); conditions: CV-1 cells, TK-LXREx3-LUC
T2 sequence (Q13133+P10828 with tags, fused parts or gaps): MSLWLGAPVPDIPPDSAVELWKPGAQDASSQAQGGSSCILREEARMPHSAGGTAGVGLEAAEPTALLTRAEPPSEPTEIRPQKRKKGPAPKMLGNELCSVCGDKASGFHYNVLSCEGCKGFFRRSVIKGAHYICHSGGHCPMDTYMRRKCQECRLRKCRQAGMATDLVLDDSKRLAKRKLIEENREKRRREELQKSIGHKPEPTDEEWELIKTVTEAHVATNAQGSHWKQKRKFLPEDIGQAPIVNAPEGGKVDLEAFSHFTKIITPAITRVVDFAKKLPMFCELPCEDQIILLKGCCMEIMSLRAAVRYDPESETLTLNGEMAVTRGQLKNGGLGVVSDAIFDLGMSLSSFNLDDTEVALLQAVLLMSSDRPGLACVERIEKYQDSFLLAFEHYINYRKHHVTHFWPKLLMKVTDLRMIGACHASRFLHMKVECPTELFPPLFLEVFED

RXR/LXR heterodimer = RXR/LXR heterodimer activation, dose response in CV-1 cells with TK-LXREx3-LUC; assay type: cell-based, human; conditions: LXRα expression plasmid, dose-dependent
Protocol: as §1, §2
A subset of receptors that function as RXR heterodimers have the unique ability to be activated by their own ligand, the RXR ligand (i.e., 9-cis retinoic acid), or both ligands together^11,17. […]

[3] = target: T3, TR-LXR chimera (TRβ N-terminus and DNA binding domain fused to ligand binding domain of LXRα) (Homo sapiens, UniProt Q13133); test: Chimeric receptor transactivation in CV-1 cells, TR-LXR chimera; assay type: cell-based; conditions: TK-LXREx3-LUC
T3 construct: expressed in transfected cells; host or cells: CV-1 monkey kidney cells
T3 sequence (Q13133 164-447): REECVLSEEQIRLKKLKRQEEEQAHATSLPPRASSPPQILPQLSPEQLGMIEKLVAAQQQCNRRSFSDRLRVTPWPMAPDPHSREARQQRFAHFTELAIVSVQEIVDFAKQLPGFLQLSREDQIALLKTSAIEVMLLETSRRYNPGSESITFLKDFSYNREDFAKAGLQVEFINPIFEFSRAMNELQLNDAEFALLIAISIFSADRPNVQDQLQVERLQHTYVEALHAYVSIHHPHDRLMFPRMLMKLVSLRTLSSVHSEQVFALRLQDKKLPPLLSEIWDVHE
Protocol: Cells were treated with ETOH or 6 μM 22(R)-hydroxycholesterol. […] CV-1 cells were cotransfected with TK-LXREx3-LUC reporter plasmid and expression plasmids containing the indicated receptor combinations, and then treated with the indicated ligands. […] CV-1 cells cotransfected with the LXRα expression plasmid and TK-LXREx3-LUC reporter were treated with 9-cis RA, 22(R)-hydroxycholesterol, or both, at the indicated concentrations.

With CC(C)CC[C@@H](O)[C@@H](C)[C@H]1CC[C@H]2[C@@H]3CC=C4C[C@@H](O)CC[C@]4(C)[C@H]3CC[C@]12C [22(R)-hydroxycholesterol] the “ligand-protected 30 kDa chymotrypsin fragment of LXRα” value (LXRα protein) was “consistently observed”, the “cross-reactivity with other known nuclear receptors (transactivation)” value [1] was “no cross-reactivity” and the “responsiveness of LXR-TR chimera” value [2] was “loses responsiveness”. The maximal induction (RXR/LXR heterodimer) was 20 fold and the “responsiveness of TR-LXR chimera” value [3] was “responded”.
